According to ChEMBL document CHEMBL1201862, “PubChem BioAssay data set” (2004):
Calls of active or inactive are those of the source.

Key:
[1] = biological target: Voltage-dependent T-type calcium channel subunit alpha-1H (Homo sapiens, UniProt O95180); type: functional;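 further: channel activity triggered by adding a high calcium stimulation buffer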
cells = type: functional
[2] = biological target: T1, Voltage-gated N-type calcium channel alpha-1B subunit/Amyloid beta A4 precursor protein-binding family A member 1 (Homo sapiens, UniProt Q00975+Q02410); type: protein assay
[3] = biological target: T1, Voltage-gated N-type calcium channel alpha-1B subunit/Amyloid beta A4 precursor protein-binding family A member 1; type: protein assay; remark: listed apart in the source
[4] = inhibitors of firefly luciferase expression or activity, dose response, H4 neuroglioma cells, luminescence (AID 1990); type: functional, cell-based
[5] = Luminescence Cell-Based Dose Response HTS to Identify Inhibitors of 5'UTR Stem-Loop Driven Prion Protein mRNA Translation in H4 Neuroglioblastoma Cells. [Related pubchem assays: 1827 (Project Summary), 1813 (Primary HTS)]; type: functional
[6] = inhibitors of SNCA 5'UTR-driven reporter translation, confirmation, H4 neuroglioma cells, luminescence (AID 1988); type: functional, cell-based
[7] = cytotoxicity in HEK-293T cells, dose response, cytotoxicity control for BCR NF-kB inhibitor project, luminescence, B-cell screen hits (AID 489021); type: functional, cell-based;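 further: HEK-293T cells carrying an NF-kB luciferase reporter; cells exposed to compound for about 14 hours before viability readout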
[8] = cytotoxicity in HEK-293T cells, dose response, cytotoxicity control for TCR NF-kB inhibitor project, luminescence, T-cell screen hits (AID 489026); type: functional, cell-based;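 further: cells exposed to compound about 14 hours before the viability readout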
Leucine aminopeptidase = biological target: T2, Leucine aminopeptidase (Plasmodium falciparum 3D7, UniProt Q8IL11); assay: P. falciparum M17LAP inhibitors, primary screen, biochemical, fluorogenic H-Leu-NHMec substrate, 1536-well (AID 1619); type: functional
T2 sequence (Q8IL11 whole entry): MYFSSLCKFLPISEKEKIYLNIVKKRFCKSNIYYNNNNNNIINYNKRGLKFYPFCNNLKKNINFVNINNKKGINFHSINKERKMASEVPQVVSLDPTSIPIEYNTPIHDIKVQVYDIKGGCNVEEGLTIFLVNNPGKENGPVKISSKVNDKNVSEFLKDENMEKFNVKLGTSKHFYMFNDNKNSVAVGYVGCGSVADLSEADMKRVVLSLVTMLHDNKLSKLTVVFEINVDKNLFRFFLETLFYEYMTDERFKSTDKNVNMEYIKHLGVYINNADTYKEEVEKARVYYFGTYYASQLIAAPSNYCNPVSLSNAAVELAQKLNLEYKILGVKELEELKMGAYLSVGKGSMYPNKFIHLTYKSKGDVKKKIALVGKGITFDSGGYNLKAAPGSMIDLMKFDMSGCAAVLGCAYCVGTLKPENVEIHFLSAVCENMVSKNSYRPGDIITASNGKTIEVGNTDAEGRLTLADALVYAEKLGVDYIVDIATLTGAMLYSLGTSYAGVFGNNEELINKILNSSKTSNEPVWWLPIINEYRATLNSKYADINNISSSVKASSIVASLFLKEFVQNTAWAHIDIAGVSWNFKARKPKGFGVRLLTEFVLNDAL

[9] = biological target: T3, RNA-binding protein pos-1 (Caenorhabditis elegans, UniProt G5EF15); assay: inhibitors of POS-1/mex-3 RNA binding, dose response, biochemical, fluorescence polarization (AID 1964);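 further: purified POS-1 fused to maltose binding protein made in E. coli; potency of compounds blocking POS-1 binding to fluorescent RNA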
T3 sequence (G5EF15 whole entry): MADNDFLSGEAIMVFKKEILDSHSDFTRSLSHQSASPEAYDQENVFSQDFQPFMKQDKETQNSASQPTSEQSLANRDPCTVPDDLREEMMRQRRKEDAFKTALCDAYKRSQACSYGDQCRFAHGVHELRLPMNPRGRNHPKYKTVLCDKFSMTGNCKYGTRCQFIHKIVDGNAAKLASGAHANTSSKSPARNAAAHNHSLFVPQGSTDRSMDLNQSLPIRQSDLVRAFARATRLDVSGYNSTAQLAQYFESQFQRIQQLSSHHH

[10] = biological target: T4, Zinc finger protein mex-5 (Caenorhabditis elegans, UniProt Q9XUB2); assay: MEX-5/TCR-2 RNA interaction inhibitors, dose response, biochemical, C. elegans, fluorescence polarization (AID 1960)
T4 sequence (Q9XUB2 whole entry): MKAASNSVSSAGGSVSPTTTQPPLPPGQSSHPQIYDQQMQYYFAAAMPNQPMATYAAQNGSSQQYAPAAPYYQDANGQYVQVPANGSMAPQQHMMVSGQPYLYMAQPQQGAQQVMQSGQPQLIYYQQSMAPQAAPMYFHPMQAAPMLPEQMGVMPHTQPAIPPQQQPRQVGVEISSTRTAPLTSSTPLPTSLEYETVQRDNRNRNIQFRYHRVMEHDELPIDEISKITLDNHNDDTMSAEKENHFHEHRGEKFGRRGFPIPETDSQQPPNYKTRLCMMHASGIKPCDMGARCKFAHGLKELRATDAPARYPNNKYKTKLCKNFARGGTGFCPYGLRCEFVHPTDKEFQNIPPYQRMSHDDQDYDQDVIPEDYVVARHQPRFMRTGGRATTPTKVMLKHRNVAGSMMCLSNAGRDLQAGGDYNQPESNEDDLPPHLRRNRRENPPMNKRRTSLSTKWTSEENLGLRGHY

[11] = biological target: T5, Polyadenylate-binding protein 1 (Homo sapiens, UniProt P11940); assay: PABP1 MLLE–PAM2 interaction inhibitors, dose response, miRNA deadenylation inhibitor project, biochemical, fluorescence polarization, Cy5-PAM2 peptide, secondary (AID 602260); type: functional; details: read-out: IC50_Mean
T5 sequence (P11940 whole entry): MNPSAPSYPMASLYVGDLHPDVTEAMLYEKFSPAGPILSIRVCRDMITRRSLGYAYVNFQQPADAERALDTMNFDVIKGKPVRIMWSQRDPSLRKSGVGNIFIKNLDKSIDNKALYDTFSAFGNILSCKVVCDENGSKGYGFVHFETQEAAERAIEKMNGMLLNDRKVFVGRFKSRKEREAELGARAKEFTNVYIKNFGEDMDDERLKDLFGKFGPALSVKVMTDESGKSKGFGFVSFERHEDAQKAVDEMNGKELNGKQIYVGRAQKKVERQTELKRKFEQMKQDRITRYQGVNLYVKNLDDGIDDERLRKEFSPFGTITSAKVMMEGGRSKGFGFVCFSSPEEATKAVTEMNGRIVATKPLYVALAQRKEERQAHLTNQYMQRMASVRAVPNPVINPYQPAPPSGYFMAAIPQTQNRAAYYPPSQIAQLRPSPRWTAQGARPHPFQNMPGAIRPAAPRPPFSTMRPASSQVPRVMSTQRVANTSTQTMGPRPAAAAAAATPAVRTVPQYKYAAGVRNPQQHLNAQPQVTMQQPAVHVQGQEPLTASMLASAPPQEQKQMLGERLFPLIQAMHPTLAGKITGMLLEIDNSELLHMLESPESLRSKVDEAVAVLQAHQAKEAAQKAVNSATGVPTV

[12] = biological target: T5, Polyadenylate-binding protein 1; assay: PABP1 MLLE–PAM2 binding inhibitor potency, dose response, biochemical, fluorescence polarization, FITC-PAM2 peptide (AID 602259); type: functional; details: read-out: IC50_Mean
Large T antigen = Large T antigen (Simian virus 40, UniProt P03070); type: functional, Betapolyomavirus macacae;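 further: Confirmatory-stage PubChem screen for compounds that inhibit SV40 T antigen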
Sequence of Large T antigen (P03070 whole entry): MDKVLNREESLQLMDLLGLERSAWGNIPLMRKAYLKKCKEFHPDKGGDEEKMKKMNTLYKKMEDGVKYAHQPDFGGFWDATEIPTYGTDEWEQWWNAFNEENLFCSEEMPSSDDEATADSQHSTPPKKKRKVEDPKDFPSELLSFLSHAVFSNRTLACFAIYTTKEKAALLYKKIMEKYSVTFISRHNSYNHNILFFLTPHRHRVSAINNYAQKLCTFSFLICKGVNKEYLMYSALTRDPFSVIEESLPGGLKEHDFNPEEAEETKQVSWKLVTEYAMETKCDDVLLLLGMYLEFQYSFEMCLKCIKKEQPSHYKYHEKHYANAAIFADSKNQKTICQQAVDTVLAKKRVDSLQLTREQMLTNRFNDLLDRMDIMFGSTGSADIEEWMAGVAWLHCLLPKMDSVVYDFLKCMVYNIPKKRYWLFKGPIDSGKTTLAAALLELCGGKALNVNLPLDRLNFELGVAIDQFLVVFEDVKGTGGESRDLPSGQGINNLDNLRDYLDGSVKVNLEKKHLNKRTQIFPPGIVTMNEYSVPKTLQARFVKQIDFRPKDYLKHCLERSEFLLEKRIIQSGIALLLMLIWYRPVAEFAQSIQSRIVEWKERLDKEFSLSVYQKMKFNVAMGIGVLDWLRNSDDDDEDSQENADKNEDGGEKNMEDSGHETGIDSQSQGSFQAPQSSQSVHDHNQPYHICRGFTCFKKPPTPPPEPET

[13] = biological target: FAD-linked sulfhydryl oxidase ALR (Homo sapiens, UniProt P55789); assay: inhibitors of human ALR sulfhydryl oxidase, dose response, biochemical, H2O2 detection, luminescence, cherry-pick (AID 493248)
Sequence of FAD-linked sulfhydryl oxidase ALR (P55789 whole entry): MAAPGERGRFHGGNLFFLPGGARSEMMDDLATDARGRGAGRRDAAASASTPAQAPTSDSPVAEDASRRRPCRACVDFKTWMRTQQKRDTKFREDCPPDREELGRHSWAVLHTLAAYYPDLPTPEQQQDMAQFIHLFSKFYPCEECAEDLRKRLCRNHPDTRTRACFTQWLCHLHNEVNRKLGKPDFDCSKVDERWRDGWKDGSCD

[14] = biological target: T6, Histone-lysine N-methyltransferase NSD2 (Homo sapiens, UniProt O96028); type: biochemical
T6 sequence (O96028 whole entry): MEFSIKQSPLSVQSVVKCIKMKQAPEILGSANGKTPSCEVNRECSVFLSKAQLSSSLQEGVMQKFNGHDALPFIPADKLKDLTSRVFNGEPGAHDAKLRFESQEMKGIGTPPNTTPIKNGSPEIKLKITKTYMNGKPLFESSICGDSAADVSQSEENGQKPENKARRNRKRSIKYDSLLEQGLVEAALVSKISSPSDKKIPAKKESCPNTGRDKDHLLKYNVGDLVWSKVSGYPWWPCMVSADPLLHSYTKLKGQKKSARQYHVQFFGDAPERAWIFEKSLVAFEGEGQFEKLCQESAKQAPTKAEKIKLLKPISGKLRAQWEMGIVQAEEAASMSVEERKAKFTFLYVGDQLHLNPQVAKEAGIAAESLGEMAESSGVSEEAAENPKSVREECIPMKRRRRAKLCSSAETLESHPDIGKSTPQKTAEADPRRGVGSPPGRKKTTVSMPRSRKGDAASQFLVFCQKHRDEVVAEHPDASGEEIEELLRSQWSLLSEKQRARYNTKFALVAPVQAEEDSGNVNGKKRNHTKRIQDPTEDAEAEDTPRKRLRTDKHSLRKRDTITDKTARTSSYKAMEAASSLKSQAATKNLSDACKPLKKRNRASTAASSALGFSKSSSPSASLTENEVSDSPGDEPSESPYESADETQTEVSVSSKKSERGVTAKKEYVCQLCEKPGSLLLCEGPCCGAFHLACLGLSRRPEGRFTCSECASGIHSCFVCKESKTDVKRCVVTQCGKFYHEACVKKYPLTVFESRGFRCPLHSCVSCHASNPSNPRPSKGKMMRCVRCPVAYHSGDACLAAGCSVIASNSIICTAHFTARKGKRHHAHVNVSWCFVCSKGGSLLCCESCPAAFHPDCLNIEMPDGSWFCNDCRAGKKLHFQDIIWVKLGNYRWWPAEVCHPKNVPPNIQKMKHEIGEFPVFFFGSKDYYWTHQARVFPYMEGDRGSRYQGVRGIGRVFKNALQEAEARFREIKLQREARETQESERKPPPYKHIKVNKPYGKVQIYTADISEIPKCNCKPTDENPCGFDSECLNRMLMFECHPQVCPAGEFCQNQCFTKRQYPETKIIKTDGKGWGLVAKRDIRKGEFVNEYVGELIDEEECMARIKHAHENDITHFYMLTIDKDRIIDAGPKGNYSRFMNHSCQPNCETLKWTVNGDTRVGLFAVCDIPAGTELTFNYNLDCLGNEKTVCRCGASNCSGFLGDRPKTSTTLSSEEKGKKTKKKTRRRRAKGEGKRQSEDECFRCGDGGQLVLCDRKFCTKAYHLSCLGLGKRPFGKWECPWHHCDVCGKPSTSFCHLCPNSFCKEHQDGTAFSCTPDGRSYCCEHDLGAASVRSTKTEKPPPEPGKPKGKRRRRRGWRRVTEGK

[15] = THP-1 cell cytotoxicity, dose response, cytotoxicity control for Vif-APOBEC3G degradation inhibitor project, THP-1 cells (AID 1117359); type: functional; details: Human immunodeficiency virus 1, THP-1
Genome polyprotein = Genome polyprotein (dengue virus type 2, UniProt P29990); assay: Dengue-2 NS5 methyltransferase inhibitors, primary screen, biochemical, confirmation dose response (AID 588689); type: functional
Sequence of Genome polyprotein (P29990 2492-3391 limits assumed): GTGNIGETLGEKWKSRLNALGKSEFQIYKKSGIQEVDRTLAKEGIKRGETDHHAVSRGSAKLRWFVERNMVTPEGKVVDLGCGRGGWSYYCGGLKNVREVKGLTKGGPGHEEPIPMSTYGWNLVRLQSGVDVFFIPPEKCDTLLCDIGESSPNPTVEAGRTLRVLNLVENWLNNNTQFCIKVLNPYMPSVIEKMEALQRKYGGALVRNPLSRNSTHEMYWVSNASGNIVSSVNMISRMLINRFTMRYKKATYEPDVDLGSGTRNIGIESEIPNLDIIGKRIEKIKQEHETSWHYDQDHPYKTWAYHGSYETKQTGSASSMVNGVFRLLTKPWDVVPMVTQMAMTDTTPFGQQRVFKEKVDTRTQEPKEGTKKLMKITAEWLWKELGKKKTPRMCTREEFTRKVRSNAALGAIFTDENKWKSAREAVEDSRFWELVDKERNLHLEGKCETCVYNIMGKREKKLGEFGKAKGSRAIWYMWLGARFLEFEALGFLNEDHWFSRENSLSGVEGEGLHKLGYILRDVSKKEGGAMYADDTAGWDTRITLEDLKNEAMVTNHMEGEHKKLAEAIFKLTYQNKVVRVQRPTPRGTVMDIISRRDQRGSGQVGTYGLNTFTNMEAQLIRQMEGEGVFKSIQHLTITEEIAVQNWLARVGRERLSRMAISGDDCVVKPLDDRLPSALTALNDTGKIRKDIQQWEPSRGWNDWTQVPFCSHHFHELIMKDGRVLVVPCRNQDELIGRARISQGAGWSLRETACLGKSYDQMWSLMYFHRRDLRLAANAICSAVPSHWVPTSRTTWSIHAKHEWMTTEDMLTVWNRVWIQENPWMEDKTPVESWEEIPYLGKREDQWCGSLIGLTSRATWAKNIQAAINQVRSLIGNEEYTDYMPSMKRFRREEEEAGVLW

Sequence of Voltage-dependent T-type calcium channel subunit alpha-1H (O95180 whole entry): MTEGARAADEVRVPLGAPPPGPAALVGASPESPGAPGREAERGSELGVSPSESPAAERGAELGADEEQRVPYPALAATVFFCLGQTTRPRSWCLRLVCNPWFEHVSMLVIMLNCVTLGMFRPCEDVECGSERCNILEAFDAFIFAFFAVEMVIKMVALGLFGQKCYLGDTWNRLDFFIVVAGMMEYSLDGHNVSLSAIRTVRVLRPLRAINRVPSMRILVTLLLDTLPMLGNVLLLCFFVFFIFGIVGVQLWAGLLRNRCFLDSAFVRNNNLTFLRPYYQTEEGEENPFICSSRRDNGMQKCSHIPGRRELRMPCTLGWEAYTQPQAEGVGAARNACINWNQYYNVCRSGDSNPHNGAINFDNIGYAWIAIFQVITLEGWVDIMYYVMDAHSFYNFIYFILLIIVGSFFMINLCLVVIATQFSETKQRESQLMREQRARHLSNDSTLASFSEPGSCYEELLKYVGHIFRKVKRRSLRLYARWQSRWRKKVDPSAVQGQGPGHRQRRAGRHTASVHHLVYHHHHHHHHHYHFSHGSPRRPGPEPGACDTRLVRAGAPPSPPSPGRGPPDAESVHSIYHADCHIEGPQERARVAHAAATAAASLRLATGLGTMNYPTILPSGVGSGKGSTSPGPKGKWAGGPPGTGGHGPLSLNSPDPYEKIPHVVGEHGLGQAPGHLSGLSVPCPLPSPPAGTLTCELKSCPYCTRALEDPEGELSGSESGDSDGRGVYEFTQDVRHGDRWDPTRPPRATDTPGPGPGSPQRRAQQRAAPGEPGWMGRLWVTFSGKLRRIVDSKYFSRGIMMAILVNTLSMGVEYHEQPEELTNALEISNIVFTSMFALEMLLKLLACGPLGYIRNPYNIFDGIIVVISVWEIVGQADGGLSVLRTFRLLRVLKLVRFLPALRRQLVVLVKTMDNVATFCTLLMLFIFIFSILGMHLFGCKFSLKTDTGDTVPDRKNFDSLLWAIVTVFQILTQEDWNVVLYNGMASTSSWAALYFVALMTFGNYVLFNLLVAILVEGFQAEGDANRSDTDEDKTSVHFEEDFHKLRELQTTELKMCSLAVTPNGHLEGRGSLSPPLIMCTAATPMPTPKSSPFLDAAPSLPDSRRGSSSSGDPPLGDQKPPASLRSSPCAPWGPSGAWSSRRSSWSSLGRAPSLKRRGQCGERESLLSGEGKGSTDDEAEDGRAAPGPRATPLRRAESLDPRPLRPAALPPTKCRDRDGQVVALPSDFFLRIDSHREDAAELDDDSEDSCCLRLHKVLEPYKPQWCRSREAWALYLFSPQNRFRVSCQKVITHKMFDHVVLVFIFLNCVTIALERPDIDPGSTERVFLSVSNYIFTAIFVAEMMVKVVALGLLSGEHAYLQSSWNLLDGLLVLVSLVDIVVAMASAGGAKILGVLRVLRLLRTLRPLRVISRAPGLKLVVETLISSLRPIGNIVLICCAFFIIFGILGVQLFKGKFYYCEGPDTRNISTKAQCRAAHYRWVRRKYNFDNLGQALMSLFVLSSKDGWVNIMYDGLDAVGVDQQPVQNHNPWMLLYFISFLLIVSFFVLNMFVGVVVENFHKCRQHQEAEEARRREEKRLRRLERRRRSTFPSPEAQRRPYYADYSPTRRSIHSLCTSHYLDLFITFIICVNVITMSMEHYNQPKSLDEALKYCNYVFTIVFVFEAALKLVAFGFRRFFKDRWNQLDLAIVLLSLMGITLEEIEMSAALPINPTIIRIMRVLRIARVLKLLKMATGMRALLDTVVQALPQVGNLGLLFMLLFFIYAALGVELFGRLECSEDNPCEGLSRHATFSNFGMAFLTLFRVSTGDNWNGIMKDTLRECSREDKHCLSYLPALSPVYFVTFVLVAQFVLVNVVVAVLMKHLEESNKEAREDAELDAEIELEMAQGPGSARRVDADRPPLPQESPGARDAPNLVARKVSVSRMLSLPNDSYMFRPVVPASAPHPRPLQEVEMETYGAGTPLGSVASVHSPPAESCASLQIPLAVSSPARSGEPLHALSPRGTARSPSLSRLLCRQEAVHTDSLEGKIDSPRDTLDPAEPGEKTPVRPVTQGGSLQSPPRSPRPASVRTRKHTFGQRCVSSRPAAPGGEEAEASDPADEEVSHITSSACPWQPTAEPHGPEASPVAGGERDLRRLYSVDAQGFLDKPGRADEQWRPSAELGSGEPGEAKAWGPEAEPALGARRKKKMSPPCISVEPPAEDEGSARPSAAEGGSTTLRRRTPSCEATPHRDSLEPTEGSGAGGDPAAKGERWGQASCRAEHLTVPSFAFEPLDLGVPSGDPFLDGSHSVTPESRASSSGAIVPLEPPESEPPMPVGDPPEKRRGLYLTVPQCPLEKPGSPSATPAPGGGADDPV

## O=C(CCNc1ccc(Cl)c(C(F)(F)F)c1)c1ccco1
[1]
  EC50: 9.96 µM (active)
cells
  IC50: 31 µM (active)

## NS(=O)(=O)c1ccc(-c2ccc(C=C3C(=O)c4ccccc4C3=O)o2)cc1
[2]
  IC50: > 56.8 µM (not active)
[3]
  IC50: > 50 µM (inactive)

## Cc1[nH]c2ccccc2c1C(=O)CN1C(=O)NC2(CC(C)CC(C)(C)C2)C1=O (stereo not given)
[4]
  EC50: 11.4 µM (active)
[5]
  EC50: 22.3 µM (active)
[6]
  EC50: 10.8 µM (active)
[7]
  IC50: 52.8 µM (inactive)

## Clc1cccc(Cl)c1OCCOCCNCc1ccccc1
[8]
  IC50: > 80 µM (inactive)

## O=C(NC(=S)NNS(=O)(=O)c1ccccc1)c1cccnc1
Leucine aminopeptidase
  IC50: 43.9 µM (active)
[9]
  EC50: > 300 µM (not active)
[10]
  EC50: > 300 µM (not active)
[11]
  IC50: > 66 µM (inactive)
[12]
  IC50: > 66 µM (inactive)

## C/C(CC(=O)Nc1ccc2ccccc2c1)=N\NC(=O)c1ccc(O)c(O)c1
Large T antigen
  IC50: 14 µM (active)
[13]
  AC50: 4.3 µM (active)
[14]
  AC50: 9.2 µM (active)

## CCc1ccc(/C=C2/SC(=S)N(CCC(=O)Nc3cccc(C(=O)O)c3)C2=O)cc1
[7]
  IC50: > 80 µM (inactive)

## CCCC(C(=O)NC1CCCC1)N(C(=O)Cn1nnc(-c2ccc(C)o2)n1)C1CCCC1 (stereo not given)
[2]
  IC50: 0.221 µM (active)
[3]
  IC50: 45 µM (active)

## CC(=O)Oc1ccc(-c2ccc(C(=O)NCCc3ccc(S(N)(=O)=O)cc3)cc2)cc1
[2]
  IC50: 11.4 µM (active)
[3]
  IC50: > 50 µM (inactive)

## CCOC(=O)c1[nH]c(C)c(C(=O)Nc2ccc(C)cc2C)c1C
[8]
  IC50: > 80 µM (inactive)

## COc1ccc(/C=N/N=C2\SC(CC(=O)O)C(=O)N2c2ccccc2)c(OC)c1 (stereo not given)
Leucine aminopeptidase
  IC50: 95.3 µM (active)

## Cc1ccc2nc(O)c(CN(Cc3ccco3)C(=O)c3ccncc3)cc2c1
[15]
  CC50: 13.5 µM (active)

## O=C(Nc1nncs1)c1ccccc1Br
Leucine aminopeptidase
  IC50: 16 µM (active)

## CCN(CC)CCC/N=C(\C)C1=C(O)c2ccccc2C1=O
[14]
  AC50: > 20 µM (inactive)

## Cc1sc(NC(=O)C2CCCCC2C(=O)O)c(C(N)=O)c1-c1ccc(C(C)C)cc1 (stereo not given)
Leucine aminopeptidase
  IC50: 7.2 µM (active)
Genome polyprotein
  IC50: 62.7 µM (active)

## O=C(CCCOc1ccccc1)N1CCN(c2ccc(F)cc2)CC1
[1]
  EC50: 4.49 µM (active)

## COc1ccc([N+](=O)[O-])cc1CSc1nnc(NC(C)=O)s1
[15]
  CC50: > 40 µM (active)

## CCOc1ccc(N(C)S(=O)(=O)c2ccc(-c3cc(C)no3)s2)cc1
[8]
  IC50: > 80 µM (inactive)

## CCOc1ccc(NC(=O)CN2C(=O)CSC(C)C2=O)cc1 (stereo not given)
Leucine aminopeptidase
  IC50: 1.21 µM (active)

## Cc1cc(C)cc(N(CC(=O)NCc2ccc3c(c2)OCO3)C(=O)CCC(=O)Nc2ccccn2)c1
[1]
  EC50: 2.74 µM (active)

## CNCCOc1ccccc1-c1ccccc1
[14]
  AC50: > 20 µM (inactive)

## COc1ccc(CC(=O)Nc2cccc(-c3ccc4nnc(C)n4n3)c2)cc1
[7]
  IC50: > 80 µM (inactive)

## Cc1cc2oc(C(=O)Nc3ccc(S(N)(=O)=O)cc3)c(C)c2cc1Cl
[2]
  IC50: 6.72 µM (active)
[3]
  IC50: > 50 µM (inactive)

## COc1ccc(S(=O)(=O)N2CCC(C(=O)N3CCc4ccccc4C3)CC2)cc1C
[1]
  EC50: 4.51 µM (active)

## Cc1nn(-c2c(Cl)cc(Cl)cc2Cl)c(=O)c2ccccc12
[15]
  CC50: 30.1 µM (active)
